Values joined by “and” are separate entries in the source; they are usually repeats but may differ in a detail not shown here. Identical values can stand only once. Like-named read-outs stand apart in the source and are kept apart here.
How the values were obtained:
[1] = test system: colorectal carcinoma LS174t xenograft; settings: tolerated dose 3 mg/kg, same dosing regimen; cited from earlier work
[2] = test system: CD10 transfected CHO cells, Clone #5; test: 3H thymidine proliferation assay, CD10 transfected CHO Clone #5; settings: Cricetulus griseus, read-out: IC50 Clone #5
Protocol: (§6) The fully assembled coding region was sub-cloned into a mammalian expression vector, downstream of the hCMV-MIE promoter. DNA sequence analysis confirmed sequence identity with the coding sequence of human CD10 (Genbank accession number Y00811). The expression plasmid was linearized and stably transfected into CHO—S cells. CD10 expressing transfectant clones were selected under 500 ug/mL of hygromycin and screened by flow cytometry for cell-surface CD10 expression using a commercially available anti-CD10-FITC antibody.

[3] = test system: HL60 cells (CD10 negative); test: Proliferation of HL60 cells with supernatant from compound-treated CHO cells; type: cell-based; settings: Homo sapiens
Text: Confirmation of the data is shown when Suc-βAla-Leu-Ala-Leu-Dox was compared to Suc-Leu-Ala-Gly-Dox and the results are consistent with the fact that Suc-βAla-Leu-Ala-Leu is cleaved by CD10 transfected cells and not by the parental cell lines.

[4] = test system: Parental CHO cells; test: 3H thymidine proliferation assay, parental CHO; type: cell-based, Chinese Hamster; settings: for IC50: Cricetulus griseus; for Ratio Suc-β-Ala-Ile-Ala-Leu/Dox: Parental CHO, ratio of IC50
[5] = test system: CD10 transfected CHO cells, Clone #8; test: 3H thymidine proliferation assay, CD10 transfected CHO Clone #8
Protocol: as §6

[6] = test system: prostate carcinoma LNCaP tumors; settings: for mean tumor weight of all mice when terminated: calculated, not shown; for Cancer Endpt.: tumor 1.5 g
Protocol: The mice were weighed and tumors were measured (by caliper) at least once a week prior to start of dosing (Day 0), then twice a week during the study. Immediately before the start of dosing (Study Day −2 to Day 0), mice were randomized to various groups based on the weight of the tumors. […] Mice were euthanized after the tumors reached a cutoff weight of 1.5 g (cancer endpoint), or when mice suffered over 25% weight loss (toxic endpoint). Studies were terminated at Day 60.

[7] = test system: LNCaP tumors; test: LNCaP xenograft in SCID mice, Q6DX2 (Example 24); type: in vivo, CB17.SCID mice; design: key to Tumor Weight: tumor weight in mg
Protocol: The mean tumor weight was approximately 200 mg at Day 0. […] Studies were terminated at Day 60.

[8] = test system: LS174t tumor bearing mice; test: Repeat-dose MTD in tumor bearing mice; type: in vivo
Protocol: (§1) In repeat-dose studies in tumor bearing mice, groups of ten mice were dosed with various amounts of prodrug for a total of five doses at either five day or 1 week intervals. […] Thus, the conclusion remains the same in that the prodrugs permit a much greater amount of therapeutic agent to be delivered to the body as a whole and to the vicinity of the target cell.
(§2) As would be expected, when a dose similar to the single-dose MTD (75 mg/kg) (See Example 16) was administered as a repeat-dose it was less well tolerated. […] All treated animals lost weight progressively throughout the study, while the vehicle control group gained up to 12% of the mean initial body weight. (FIG. 20). Two treated animals in the high dose group were terminated due to signs of toxicity, with body weight loss of greater that 20% of their initial weight. […] Thus cumulative toxicity resulted from repeat-dosing at these relatively high dose-levels.

[9] = Repeat-dose MTD in tumor bearing mice; type: in vivo; settings: mouse, in vivo
Protocol: as §1, §2

[10] = Metabolism and clearance in normal mice (plasma and urine, LC MS/MS); type: in vivo; settings: after Suc-βAla-Ile-Ala-Leu-Dox 117 mg/kg
[11] = test system: CD10 transfected CHO cells, Clone #3; test: 3H thymidine proliferation assay, CD10 transfected CHO Clone #3; type: cell-based, Chinese Hamster; settings: Cricetulus griseus, Table 25
Protocol: as §6

[12] = test system: HL-60 xenograft homogenate; test: Hydrolysis by mouse tumor xenograft homogenates; type: biochemical; settings: 12.5 μg/mL, up to 1 hr, 37° C.
Protocol: (§3) Soluble protein was measured and results are reported as protein specific activity. The results, illustrated in FIG. 13, indicate the LNCaP cells contain the highest Suc-Ile-Ala-Leu-Dox hydrolyzing activity while HL-60 cells show no Suc-Ile-Ala-Leu-Dox hydrolyzing activity.

[13] = test system: LNCaP xenograft homogenate; test: Hydrolysis by mouse tumor xenograft homogenates; type: biochemical; settings: 12.5 μg/mL, up to 1 hr, 37° C.
Protocol: as §3

[14] = Single dose Maximum Tolerated Dose (MTD) study, 28 days; type: in vivo, mice; settings: mouse, in vivo; intravenous bolus, normal mice, 28 days
Protocol: (§4) The mice were observed daily for 28 days and body weights measured twice weekly.
as §4
(§5) In the single dose Maximum Tolerated Dose (MTD) studies, groups of normal mice were administered intravenous bolus doses of the prodrug. The mice were observed daily for 28 days and body weights measured twice weekly. The MTD was estimated to be equal to the highest dose that produced no death in mice after 28 days.

[15] = test system: normal mice; test: as above; type: in vivo; settings: for single-dose MTD, fold higher than doxorubicin alone: 28 days
Protocol: as §4, §4, §5

[16] = mouse, in vivo, iv, 100 umol/kg
Protocol: Plasma was obtained from three individual animals in each group at 5 minutes, 1, 2, 4, or 6 hr.

[17] = test system: CD10 transfected CHO cells (clone 8); test: Conversion to Leu-Dox or Gly-Dox in cell supernatants, CD10 transfected CHO; type: cell-based, Chinese Hamster; settings: Clone 8 (CD10 transfected), 10 μM, 37° C.
Protocol: To directly ask the question of whether the CD10 expressing cells were capable of cleaving the prodrug, supernatants from CD10 transfected or parental CHO cells treated with the compounds were collected. […] After incubation for 1, 4, and 24 hours, an aliquot of each supernatant was transferred to a 96-well plate and frozen at −20° C. Samples were subsequently thawed and analyzed by reversed phase HPLC (4.6×50 mm 21 TSK Super-ODS column) with fluorescence detection after dilution with 3 volumes of acetonitrile, removal of precipitate by centrifugation, and further dilution into 3 volumes of water. When incubated with Suc-βAla-Leu-Ala-Leu-Dox, there was no detectable metabolism to Leu-Dox observed with the parental cell line while clone 8 (CD10 transfected) generated significant levels of Leu-Dox from Suc-βAla-Leu-Ala-Leu-Dox (Table 27).

## COc1cccc2c1C(=O)c1c(O)c3c(c(O)c1C2=O)C[C@@](O)(C(=O)CO)C[C@@H]3O[C@H]1C[C@H](N)[C@H](O)[C@H](C)O1 [Doxorubicin, reference compound]
[1]
  efficacy in LS174t model: historically ineffective
[2]
  IC50: 0.81 µM
[3]; HL-60, 24 h, HL60 fresh compound, 24 hours
  IC50: 0.164 µM
[3]; HL-60, 24 h, supernatant of Parental CHO, collected 24 hours after exposure
  IC50: 0.279 µM
[3]; HL-60, supernatant of Clone 8 (CD10 Pos.)
  IC50: 0.488 µM
[3]; HL-60, supernatant of Clone 10 (CD10 Neg.)
  IC50: 0.417 µM
[3]; HL-60, supernatant of Clone DB4 (CD10 Pos.)
  IC50: 0.491 µM
[4]; CHO, Tables 25, 26, read-out: IC50 Parental CHO
  IC50: 0.51 µM
[4]; CHO cells, average, read-out: average IC50 in CHO cells
  IC50: 0.57 µM
[5]; Cricetulus griseus, CHO, read-out: IC50 Clone #8
  IC50: 0.57 µM
[6]; 5 mg/kg Q7DX5
  mean tumor weight of all mice when terminated: 967 mg
  Cancer Endpt.: 0
[6]; 5 mg/kg i.v. Q7DX5
  % Tumor Growth Inhibition D14: D14: 32 ± 16%
  Survivor (day 60): 1
  Tumor Weight D14: D14: 567 ± 77
[7]; 3 mg/kg Q6DX2
  Toxic Endpt.: 1
[7]; 3 mg/kg Q6DX2, Day 12
  % Tumor Growth Inhibition: 21 ± 8%
  Tumor Weight: 328 ± 35
[7]; 3 mg/kg Q6DX2, groups of ten
  Survivor (day 22): 9
[7]; 4 mg/kg Q6DX2
  Toxic Endpt.: 2
[7]; 4 mg/kg Q6DX2, Day 12
  % Tumor Growth Inhibition: 26 ± 6%
  Tumor Weight: 310 ± 25
[7]; 4 mg/kg Q6DX2, groups of ten
  Survivor (day 22): 8
[8]; Q 7D × 5
  Repeat Dose MTD, doxorubicin equivalent dose (in parentheses): 4 (4) mg/kg
[8]; total of 5 doses
  RD-MTD as total exposure after 5 doses: 20 mg/kg doxorubicin equivalent
[9]; Q 7D × 5, tumor bearing mice
  MTD at 60 days: 4 mg/kg
[10]; collected 0-2 hours
  Urine (% adm. dose) 2 hr: 0.21 % adm. dose
[10]; collected 2-24 hours
  Urine (% adm. dose) 24 hr: 0.51 % adm. dose
[11]
  IC50: 0.55 µM

## CC[C@H](C)[C@H](NC(=O)CCC(=O)O)C(=O)N[C@@H](C)C(=O)N[C@@H](CC(C)C)C(=O)N[C@H]1C[C@H](O[C@H]2C[C@](O)(C(=O)CO)Cc3c(O)c4c(c(O)c32)C(=O)c2c(OC)cccc2C4=O)O[C@@H](C)[C@H]1O [Suc-Ile-Ala-Leu-Dox]
[12]
  hydrolyzing activity (protein specific activity): no
[13]
  hydrolyzing activity (protein specific activity): highest
[14]
  MTD: ≥ 66 mg/kg
[15]
  single-dose MTD, fold higher than doxorubicin alone: at least 16 fold
[15]; intravenous bolus, normal mice
  28-day single-dose Maximum Tolerated Dose (MTD): > 117 mg/kg

## CC[C@H](C)[C@H](NC(=O)CCNC(=O)CCC(=O)O)C(=O)N[C@@H](C)C(=O)N[C@@H](CC(C)C)C(=O)N[C@H]1C[C@H](O[C@H]2C[C@](O)(C(=O)CO)Cc3c(O)c4c(c(O)c32)C(=O)c2c(OC)cccc2C4=O)O[C@@H](C)[C@H]1O [Suc-βAla-Ile-Ala-Leu-Dox]
[14]
  MTD: 40 mg/kg
[15]; 100 mg/kg, Day 21, groups of five
  animals euthanized due to treatment-related toxicity: two
[15]; 125 mg/kg, Day 14, groups of five
  animals euthanized due to treatment-related toxicity: four
[15]
  single-dose MTD, fold higher than doxorubicin alone: approximately 10 fold
[4]
  Ratio Suc-β-Ala-Ile-Ala-Leu/Dox: 49
[4]; listed as Suc-β-Ala-Ile-Ala-Leu
  Ratio Suc-β-Ala-Ile-Ala-Leu/Dox: 96
[5]; CD10 transfected CHO cells
  IC50 difference to Dox: ~16 fold
[5]; Clone #8, ratio of IC50
  Ratio Suc-β-Ala-Ile-Ala-Leu/Dox: 15
[8]; 68 mg/kg Q5DX5, groups of ten
  animals terminated due to signs of toxicity: Two
[9]; total of 5 doses, read-out: RD-MTD as total exposure after 5 doses
  MTD: ~150 mg/kg

## COc1cccc2c1C(=O)c1c(O)c3c(c(O)c1C2=O)C[C@@](O)(C(=O)CO)C[C@@H]3O[C@H]1C[C@H](NC(=O)[C@H](CC(C)C)NC(=O)[C@H](C)NC(=O)[C@H](CC(C)C)NC(=O)CCNC(=O)CCC(=O)O)[C@H](O)[C@H](C)O1 [Suc-βAla-Leu-Ala-Leu-Dox]
[16]
  AUC(0-t): 806 µM·h
[17]
  Conversion rate to Leu-Dox or Gly-Dox: 0.30 mM/h
  Percent Conversion/Hour to Leu-Dox or Gly-Dox: 3.00 Percent Conversion/Hour
[6]; 59 mg/kg Q7DX5
  mean tumor weight of all mice when terminated: 232 mg
  Cancer Endpt.: 0
[6]; 59 mg/kg Q7DX5, over 25% weight loss
  Toxic Endpt.: 7 of 7 and 7
[6]; 59 mg/kg i.v. Q7DX5
  % Tumor Growth Inhibition D14: D14: 53 ± 15 %
  % Tumor Growth Inhibition D21: D21: 66 ± 15 %
  Survivor (day 60): 0
  Tumor Weight D14: D14: 391 ± 70
  Tumor Weight D21: D21: 318 ± 67
[7]; 40 mg/kg Q6DX2
  Toxic Endpt.: 0
[7]; 40 mg/kg Q6DX2, Day 12
  Tumor Weight: 244 ± 25
[7]; 40 mg/kg Q6DX2, groups of ten
  Survivor (day 22): 10
[7]; 50 mg/kg Q6DX2
  Toxic Endpt.: 5
[7]; 50 mg/kg Q6DX2, Day 12
  Tumor Weight: 168 ± 29
[7]; 50 mg/kg Q6DX2, groups of ten
  Survivor (day 22): 5
[7]; 62 mg/kg Q6DX2
  Toxic Endpt.: 6
[7]; 62 mg/kg Q6DX2, Day 12
  Tumor Weight: 196 ± 22
[7]; 62 mg/kg Q6DX2, groups of ten
  Survivor (day 22): 4

— patent publication US20050267016A1, “CD-10 activated prodrug compounds” (priority 2001, published 2005)
